Like-named read-outs stand apart in the source and are kept apart here.
What was measured:
[1] = tested on: Leishmania amazonensis promastigotes; experiment: Leishmanicidal activity against L. amazonensis promastigotes (XTT, 72 h); conditions: for IC50: 72 h; for selectivity ratio at 72 h: mouse (RAW cells), Leishmania amazonensis (parasite), L. amazoniensis SI (selectivity index, cytotoxicity/anti-protozoal activity); for selectivity ratio at 72 h / L. amazoniensis SI (selectivity index, cytotoxicity/anti-protozoal activity): IC50 RAW cells / IC50 L. amazonensis
[2] = tested on: Trypanosoma cruzi epimastigotes; experiment: Trypanocidal activity against T. cruzi epimastigotes (XTT, 72 h); format: cell-based; conditions: for IC50: 72 h; for selectivity ratio at 72 h: mouse (RAW cells), Trypanosoma cruzi (parasite), RAW 264.7 macrophage cells versus T. cruzi epimastigotes, read-out: T. cruzi SI (selectivity index, cytotoxicity/anti-protozoal activity); for selectivity ratio at 72 h / T. cruzi SI (selectivity index, cytotoxicity/anti-protozoal activity): IC50 RAW cells / IC50 T. cruzi
Procedure: Cultures of Trypanosoma cruzi (epimastigotes, donated by the Parasitology Department of INLASA, Tc-INLASA, city, country), were maintained in medium LIT (pH 7.2), supplemented with 10% FBS and incubated at 26 °C. Medium changes were made every 72 h to maintain a viable parasitic population. Trypanocidal activity was determined according to Muelas-Serrano with some modifications. Samples were dissolved in DMSO (maximum final concentration 1%) at 10 mg/mL. Epimastigotes in logarithmic phase of growth, at a concentration of 3 × 10^6 parasites/mL, were distributed (100 μL/well) in 96-well flat bottom microtiter plates. Samples at different concentrations (3.1–100 μg/mL) were added (100 μL). Benznidazole (3.1–100 μg/mL) was used as the control drug. Assays were performed in triplicates. The microwell plates were incubated for 72 h at 26 °C. After incubation, a solution of XTT (1 mg/mL) in PBS (pH 7.0 at 37 °C) with PMS (0.06 mg/mL) was added (50 μL/well) and incubated for 4 h at 26 °C. The optical density of each well was measured and the IC50 values were calculated. A negative control experiments with only 1% DMSO was carried out, showing that the solvent by itself has no antiparasitic activity.

[3] = tested on: Leishmania braziliensis promastigotes; experiment: Leishmanicidal activity against L. braziliensis promastigotes (XTT, 72 h); conditions: for IC50: 72 h; for selectivity ratio at 72 h: mouse (RAW cells), Leishmania braziliensis (parasite), L. brasiliensis SI (selectivity index, cytotoxicity/anti-protozoal activity); for selectivity ratio at 72 h / L. brasiliensis SI (selectivity index, cytotoxicity/anti-protozoal activity): IC50 RAW cells / IC50 L. braziliensis
[4] = Cytotoxicity on RAW cells (resazurin, 72 h); conditions: mouse
[5] = tested on: Raw 264.7 murine macrophage cell line; experiment: Cytotoxicity on RAW cells (resazurin, 72 h); conditions: read-out: Cytotoxicity IC50; RAW cells, 72 h, average ± SD of at least three experiments
CB2 receptor = conditions: cited from earlier work
[6] = tested on: Leishmania amazonensis promastigotes; conditions: stated as previously investigated and reported, read-out: IC50 against L. amazonesis promastigotes; cited from earlier work
[7] = Leishmania amazonensis, read-out: L. amazoniensis IC50, promastigotes, 72 h, average ± SD of at least three experiments
[8] = epimastigotes, average ± SD of at least three experiments, read-out: T. cruzi IC50
[9] = read-out: L. brasiliensis IC50, promastigotes, 72 h, average ± SD of at least three experiments
[10] = RAW 264.7 macrophage cells, Cytotoxicity IC50, RAW cells, 72 h, average ± SD of at least three experiments
[11] = read-out: L. amazoniensis IC50, promastigotes, average ± SD of at least three experiments
[12] = Trypanosoma cruzi, epimastigotes, average ± SD of at least three experiments, read-out: T. cruzi IC50
[13] = read-out: L. brasiliensis IC50, promastigotes, average ± SD of at least three experiments

COc1ccc2c(c1)-c1cc(CO)ccc1CO2 [8a, (2-Methoxy-6H-benzo[c]chromen-9-yl)methanol]
IC50 [1, 7]: 132 ± 29.3 µM
selectivity ratio at 72 h [1]: 0.6
IC50 ([2]; Trypanosoma cruzi, read-out: T. cruzi IC50, epimastigotes, 72 h, average ± SD of at least three experiments): 66.6 µM
IC50 [2, 8]: 66 ± 18.2 µM
selectivity ratio at 72 h [2]: 1.3
IC50 [3, 9]: 248 ± 54.1 µM
selectivity ratio at 72 h [3]: 0.3
IC50 at 72 h [4, 10]: 82.6 ± 9.5 µM

COc1ccc2c(c1)-c1cc(CO)ccc1C(C)O2 (stereo not shown) [8b, (2-Methoxy-6-methyl-6H-benzo[c]chromen-9-yl)methanol]
L. amazoniensis SI (selectivity index, cytotoxicity/anti-protozoal activity) [1]: 0.2
IC50 [1, 11]: 156 ± 58.5 µM
IC50 [2, 12]: 35.9 ± 11.7 µM
selectivity ratio at 72 h [2]: 1
IC50 [3, 9]: 156 ± 23.4 µM
selectivity ratio at 72 h [3]: 0.2
IC50 at 72 h [4, 10]: 37.1 ± 3.9 µM

COc1ccc2c(c1)-c1cc(CO)ccc1C(C)O2 (stereo not shown) [8c, (2-Methoxy-6-methyl-6H-benzo[c]chromen-9-yl)methanol]
L. amazoniensis SI (selectivity index, cytotoxicity/anti-protozoal activity) [1]: 0.7
IC50 [1, 11]: 71.8 ± 12.5 µM
T. cruzi SI (selectivity index, cytotoxicity/anti-protozoal activity) [2]: 0.8
IC50 [2, 8]: 67.1 ± 31.2 µM
L. brasiliensis SI (selectivity index, cytotoxicity/anti-protozoal activity) [3]: 0.4
IC50 [3, 13]: 129 ± 24.6 µM
IC50 [5]: 52.7 ± 9 µM

CCC1Oc2ccc(OC)cc2-c2cc(CO)ccc21 (stereo not shown) [8d, (6-Ethyl-2-methoxy-6H-benzo[c]chromen-9-yl)methanol]
IC50 [1, 7]: 71.4 ± 1.1 µM
selectivity ratio at 72 h [1]: 0.4
IC50 [2, 12]: 51.8 ± 9.2 µM
selectivity ratio at 72 h [2]: 0.6
IC50 [3, 9]: 45.9 ± 20.3 µM
selectivity ratio at 72 h [3]: 0.7
IC50 at 72 h [4, 10]: 30 ± 3.7 µM

CCC1Oc2ccc(OC)cc2-c2cc(CO)ccc21 (stereo not shown) [8e, (6-Ethyl-2-methoxy-6H-benzo[c]chromen-9-yl)methanol]
L. amazoniensis SI (selectivity index, cytotoxicity/anti-protozoal activity) [1]: 0.6
IC50 [1, 11]: 70.3 ± 3.7 µM
T. cruzi SI (selectivity index, cytotoxicity/anti-protozoal activity) [2]: 1.2
IC50 [2, 8]: 37 ± 0.7 µM
L. brasiliensis SI (selectivity index, cytotoxicity/anti-protozoal activity) [3]: 1.0
IC50 [3, 13]: 45.1 ± 19.2 µM
IC50 [5]: 44.4 ± 11.5 µM

CCC1(CC)Oc2ccc(OC)cc2-c2cc(CO)ccc21 [8f, (6,6-Diethyl-2-methoxy-6H-benzo[c]chromen-9-yl)methanol]
IC50 [1, 7]: 36.9 ± 3.4 µM
selectivity ratio at 72 h [1]: 1.2
IC50 [2, 12]: 10.4 ± 0.3 µM
selectivity ratio at 72 h [2]: 4.2
IC50 [3, 9]: 46.9 ± 5 µM
selectivity ratio at 72 h [3]: 0.9
IC50 at 72 h [4, 10]: 43.6 ± 15.1 µM

CCCCC1(CCCC)Oc2ccc(OC)cc2-c2cc(CO)ccc21 [8g, (6,6-Dibutyl-2-methoxy-6H-benzo[c]chromen-9-yl)methanol]
IC50 [1, 7]: 25.4 ± 1.1 µM
selectivity ratio at 72 h [1]: 1.4
IC50 [2, 12]: 22.8 ± 8.5 µM
selectivity ratio at 72 h [2]: 1.5
IC50 [3, 9]: 29.3 ± 1.4 µM
selectivity ratio at 72 h [3]: 1.2
IC50 at 72 h [4]: 35.3 ± 17.5 µM

COc1ccc2c(c1)OC(C)(C)c1ccc(CO)cc1-2 [10a, (3-Methoxy-6,6-dimethyl-6H-benzo[c]chromen-9-yl)methanol]
IC50 [1, 7]: 66.6 ± 7.4 µM
selectivity ratio at 72 h [1]: 0.9
IC50 [2, 12]: 88.4 ± 12.2 µM
selectivity ratio at 72 h [2]: 0.7
IC50 [3, 9]: 37.4 ± 1.1 µM
selectivity ratio at 72 h [3]: 1.6
IC50 at 72 h [4]: 59.2 ± 25.9 µM

COc1cccc2c1-c1cc(CO)ccc1C(C)(C)O2 [10b, (1-Methoxy-6,6-dimethyl-6H-benzo[c]chromen-9-yl)methanol]
IC50 [1, 7]: 180 ± 21.9 µM
selectivity ratio at 72 h [1]: 0.3
IC50 [2, 12]: 92.5 ± 14.8 µM
selectivity ratio at 72 h [2]: 0.5
IC50 [3, 9]: 48.1 ± 18.5 µM
selectivity ratio at 72 h [3]: 1
IC50 at 72 h [4]: 48.1 ± 18.5 µM

Cc1ccc2c(c1)-c1cc(CO)ccc1C(C)(C)O2 [10c, (2,6,6-Trimethyl-6H-benzo[c]chromen-9-yl)methanol]
IC50 [1, 7]: 64.9 ± 12.6 µM
selectivity ratio at 72 h [1]: 0.6
IC50 [2, 12]: 31.5 ± 7.9 µM
selectivity ratio at 72 h [2]: 1.3
IC50 [3, 9]: 39.3 ± 2.4 µM
selectivity ratio at 72 h [3]: 1
IC50 at 72 h [4, 10]: 39.3 ± 1.6 µM

Cc1ccc2c(c1)OC(C)(C)c1ccc(CO)cc1-2 [10d, (3,6,6-Trimethyl-6H-benzo[c]chromen-9-yl)methanol]
IC50 [1, 7]: 51.9 ± 13.8 µM
selectivity ratio at 72 h [1]: 0.7
IC50 [2, 12]: 33 ± 3.9 µM
selectivity ratio at 72 h [2]: 1.1
IC50 [3, 9]: 40.1 ± 8.3 µM
selectivity ratio at 72 h [3]: 0.9
IC50 at 72 h [4]: 35.4 ± 7.9 µM

CC1(C)Oc2ccccc2-c2cc(CO)ccc21 [10e, (6,6-Dimethyl-6H-benzo[c]chromen-9-yl)methanol]
IC50 [1, 7]: 91.6 ± 5.4 µM
selectivity ratio at 72 h [1]: 0.7
IC50 [2, 12]: 50.8 ± 6.2 µM
selectivity ratio at 72 h [2]: 1.2
IC50 [3, 9]: 74.9 ± 16.6 µM
selectivity ratio at 72 h [3]: 0.8
IC50 at 72 h [4, 10]: 62.4 ± 6.2 µM

CC(C)c1ccc2c(c1)-c1cc(CO)ccc1C(C)(C)O2 [10f, (2-Isopropyl-6,6-dimethyl-6H-benzo[c]chromen-9-yl)methanol]
IC50 [1, 7]: 15.6 ± 2.8 µM
selectivity ratio at 72 h [1]: 0.6
IC50 [2, 12]: 12.4 ± 3.5 µM
selectivity ratio at 72 h [2]: 0.7
IC50 [3, 9]: 18.1 ± 0.7 µM
selectivity ratio at 72 h [3]: 0.5
IC50 at 72 h [4]: 8.9 ± 3.5 µM

CC(C)c1ccc2c(c1)OC(C)(C)c1ccc(CO)cc1-2 [10g, (3-Isopropyl-6,6-dimethyl-6H-benzo[c]chromen-9-yl)methanol]
IC50 [1, 7]: 21.2 ± 7.1 µM
selectivity ratio at 72 h [1]: 1
IC50 [2, 12]: 14.2 ± 4.2 µM
selectivity ratio at 72 h [2]: 1.6
IC50 [3, 9]: 19.1 ± 1.1 µM
selectivity ratio at 72 h [3]: 1.1
IC50 at 72 h [4]: 22 ± 7.1 µM

CCCCCc1ccc2c(c1)-c1cc(CO)ccc1C(C)(C)O2 [10h, (6,6-Dimethyl-2-pentyl-6H-benzo[c]chromen-9-yl)methanol]
IC50 [1, 7]: 16.8 ± 1.9 µM
selectivity ratio at 72 h [1]: 0.8
IC50 [2, 12]: 6.4 ± 0.3 µM
selectivity ratio at 72 h [2]: 2
IC50 [3, 9]: 16.4 ± 0.3 µM
selectivity ratio at 72 h [3]: 0.8
IC50 at 72 h [4]: 12.9 ± 3.2 µM

O=C(Cn1ccnc1[N+](=O)[O-])NCc1ccccc1 [Benznidazole, reference compound]
T. cruzi SI (selectivity index, cytotoxicity/anti-protozoal activity) [2]: 3.9
IC50 [2, 12]: 19.2 ± 7.7 µM
IC50 [5]: 74.7 ± 9.1 µM

CCCCCc1cc(O)c2c(c1)OC(C)(C)c1ccc(C)cc1-2 [Cannabinol]
affinity for the CB2 receptor compared to THC (CB2 receptor): 10 times

CCCCCCCCCCCCCCCCOP(=O)([O-])OCC[N+](C)(C)C [Miltefosine, reference compound]
IC50 [3, 9]: 13 ± 1.2 µM

COc1ccc2c(c1)-c1cc(CO)ccc1C(C)(C)O2 [compound 1, pulchrol]
L. amazoniensis SI (selectivity index, cytotoxicity/anti-protozoal activity) [1]: 0.4
IC50 [6]: 77.7 µM
T. cruzi SI (selectivity index, cytotoxicity/anti-protozoal activity) [2]: 1.7
IC50 [2, 12]: 18.5 ± 9.6 µM
IC50 [3, 9]: 59.2 ± 11.8 µM
L. brasiliensis SI (selectivity index, cytotoxicity/anti-protozoal activity) [3]: 0.5
IC50 [5]: 30.7 ± 1.1 µM

From paper PMC7582507, “SARs for the Antiparasitic Plant Metabolite Pulchrol. Part 2: B- and C-Ring Substituents” (Molecules, 2020)
